Laboratory results: US20250051277A1, “DELIVERY OF THERAPEUTIC ALKALOID COMPOUNDS” (Sensorium Therapeutics, Inc., priority 2021, published 2025)
Like-named read-outs stand apart in the source and are kept apart here.

What was measured:
[1] = assay type: physicochemical; conditions: SGF with pepsin, pH 1.5, 37° C.; for Condition 1 Conversion (%), first value of pair x/y: first of two values; for Condition 1 Conversion (%), second value of pair x/y: second of two values; for Condition 1 Conversion (%): 0.5 mM
[2] = assay type: physicochemical; conditions: DI water, 25° C., 0.5 mM

Row | SMILES | Condition 2 Conversion (%) ([2]; time 1 min) | Condition 2 Conversion (%) ([2]; time 5 min) | Condition 2 Conversion (%) ([2]; time 30 min) | Condition 2 Conversion (%) ([2]; time 1 h) | Condition 2 Conversion (%) ([2]; time 4 h) | Condition 2 Conversion (%) ([2]; time 24 h) | Condition 1 Conversion (%) ([1]; time 1 min) | Condition 1 Conversion (%) ([1]; time 5 min) | Condition 1 Conversion (%) ([1]; time 30 min) | Condition 1 Conversion (%) ([1]; time 1 h) | Condition 1 Conversion (%) ([1]; time 4 h) | Condition 1 Conversion (%) ([1]; time 24 h) | also measured
1 | COc1ccc([C@@]23CC/C(=N\OC(C)(C)OC)C[C@@H]2N(C)CC3)cc1OC [Compound 204, (E,3aS,7aS)-3a-(3,4-dimethoxyphenyl)-N-(1-methoxy-1-methyl-ethoxy)-1-methyl-2,3,4,5,7,7a-hexahydroindol-6-imine] | 0% | 0% | 0% | 0% | 0% | 0% | – | – | – | – | – | – | Condition 1 Conversion (%), first value of pair x/y ([1]; time 1 min): 100%; Condition 1 Conversion (%), second value of pair x/y ([1]; time 1 min): 0%; Condition 1 Conversion (%), first value of pair x/y ([1]; time 5 min): 100%; Condition 1 Conversion (%), second value of pair x/y ([1]; time 5 min): 0%; Condition 1 Conversion (%), first value of pair x/y ([1]; time 30 min): 0%; Condition 1 Conversion (%), second value of pair x/y ([1]; time 30 min): 100%; Condition 1 Conversion (%), first value of pair x/y ([1]; time 1 h): 0%; Condition 1 Conversion (%), second value of pair x/y ([1]; time 1 h): 100%; Condition 1 Conversion (%), first value of pair x/y ([1]; time 4 h): 0%; Condition 1 Conversion (%), second value of pair x/y ([1]; time 4 h): 100%; Condition 1 Conversion (%), first value of pair x/y ([1]; time 24 h): 0%; Condition 1 Conversion (%), second value of pair x/y ([1]; time 24 h): 100%
2 | COc1ccc([C@@]23CCC(=NOCC4CC4)C[C@@H]2N(C)CC3)cc1OC [Compound 205, (3aS,7aS)-N-(cyclopropylmethoxy)-3a-(3,4-dimethoxyphenyl)-1-methyl-2,3,4,5,7,7a-hexahydroindol-6-imine] | 0% | 0% | 0% | 0% | 0% | 0% | 0% | 0% | 4.5% | 9.4% | 16.7% | 19.3% | –
3 | COc1ccc([C@@]23CCC(=NOC4CCCCO4)C[C@@H]2N(C)CC3)cc1OC (stereo partly drawn) [Compound 206, (3aS,7aS)-3a-(3,4-dimethoxyphenyl)-1-methyl-N-tetrahydropyran-2-yloxy-2,3,4,5,7,7a-hexahydroindol-6-imine] | 0% | 0% | 0% | 0% | 0% | 0% | 0% | 0% | – | – | – | – | Condition 1 Conversion (%), first value of pair x/y ([1]; time 30 min): 1.41%; Condition 1 Conversion (%), second value of pair x/y ([1]; time 30 min): 0%; Condition 1 Conversion (%), first value of pair x/y ([1]; time 1 h): 7.83%; Condition 1 Conversion (%), second value of pair x/y ([1]; time 1 h): 2.57%; Condition 1 Conversion (%), first value of pair x/y ([1]; time 4 h): 0%; Condition 1 Conversion (%), second value of pair x/y ([1]; time 4 h): 77.75%; Condition 1 Conversion (%), first value of pair x/y ([1]; time 24 h): 0%; Condition 1 Conversion (%), second value of pair x/y ([1]; time 24 h): 100%
4 | COc1ccc([C@@]23CCC(=NOc4ccccc4)C[C@@H]2N(C)CC3)cc1OC [Compound 207, (3aS,7aS)-3a-(3,4-dimethoxyphenyl)-1-methyl-N-phenoxy-2,3,4,5,7,7a-hexahydroindol-6-imine] | 0% | 0% | 0% | 0% | 0% | 0% | 0% | 0% | 0% | 0% | 1.5% | 7.9% | –
5 | COc1ccc([C@@]23CCC(=NOCc4ccccc4)C[C@@H]2N(C)CC3)cc1OC [Compound 208, (3aS,7aS)-N-benzyloxy-3a-(3,4-dimethoxyphenyl)-1-methyl-2,3,4,5,7,7a-hexahydroindol-6-imine] | 0% | 0% | 0% | 0% | 0% | 0% | 0% | 0% | 0% | 0% | 11.5% | 12% | –
6 | COc1ccc([C@@]23CCC(=NOCc4cccnc4)C[C@@H]2N(C)CC3)cc1OC [Compound 209, (3aS)-3a-(3,4-dimethoxyphenyl)-1-methyl-N-(3-pyridylmethoxy)-2,3,4,5,7,7a-hexahydroindol-6-imine] | 0% | 0% | 0% | 0% | 0% | 0% | 0% | 0% | 0% | 0% | 0% | 0% | –
7 | COc1ccc([C@@]23CCC(=NOCCON=C4CC[C@@]5(c6ccc(OC)c(OC)c6)CCN(C)[C@H]5C4)C[C@@H]2N(C)CC3)cc1OC [Compound 210, (3aS,7aS)-N-[2-[[(3aS,7aS)-3a-(3,4-dimethoxyphenyl)-1-methyl-2,3,4,5,7,7a-hexahydroindol-6-ylidene]amino]oxyethoxy]-3a-(3,4-dimethoxyphenyl)-1-methyl-2,3,4,5,7,7a-hexahydroindol-6-imine] | 0% | 0% | 0% | 0% | 0% | 0% | 0% | 0% | 3.48% | 7.51% | 14.75% | 15.35% | –
8 | COc1ccc([C@]23CCN(C)[C@H]2CC2(CC3)OCC(C(=O)O)O2)cc1OC (stereo partly drawn) [Compound 214, (3aS,7aS)-3a-(3,4-dimethoxyphenyl)-1-methyloctahydrospiro[indole-6,2′-[1,3]dioxolane]-4′-carboxylic acid] | 0% | 0% | 0% | 0% | 0% | 0% | 0% | 0% | 0% | 0% | 0% | 0% | –
9 | COc1ccc([C@@]23CC/C(=N/OC(C)(C)OC)C[C@@H]2N(C)CC3)cc1OC [Compound 219, (Z,3aS,7aS)-3a-(3,4-dimethoxyphenyl)-N-(1-methoxy-1-methyl-ethoxy)-1-methyl-2,3,4,5,7,7a-hexahydroindol-6-imine] | 0% | 0% | 0% | 0% | 0% | 0% | – | – | – | – | – | – | Condition 1 Conversion (%), first value of pair x/y ([1]; time 1 min): 100%; Condition 1 Conversion (%), second value of pair x/y ([1]; time 1 min): 0%; Condition 1 Conversion (%), first value of pair x/y ([1]; time 5 min): 100%; Condition 1 Conversion (%), second value of pair x/y ([1]; time 5 min): 0%; Condition 1 Conversion (%), first value of pair x/y ([1]; time 30 min): 0%; Condition 1 Conversion (%), second value of pair x/y ([1]; time 30 min): 100%; Condition 1 Conversion (%), first value of pair x/y ([1]; time 1 h): 0%; Condition 1 Conversion (%), second value of pair x/y ([1]; time 1 h): 100%; Condition 1 Conversion (%), first value of pair x/y ([1]; time 4 h): 0%; Condition 1 Conversion (%), second value of pair x/y ([1]; time 4 h): 100%; Condition 1 Conversion (%), first value of pair x/y ([1]; time 24 h): 0%; Condition 1 Conversion (%), second value of pair x/y ([1]; time 24 h): 100%
10 | COc1ccc([C@@]23CCC(=NNC(=O)c4ccc(F)cc4)C[C@@H]2N(C)CC3)cc1OC [Compound 220, N-[[(3aS)-3a-(3,4-dimethoxyphenyl)-1-methyl-2,3,4,5,7,7a-hexahydroindol-6-ylidene]amino]-4-fluoro-benzamide] | 20.02% | 21.53% | 22.27% | 55.36% | 88.25% | 89.93% | 86.72% | 100% | 100% | 100% | 100% | 100% | –
11 | COc1ccc([C@@]23CCC(=NNc4ccc(Cl)cc4)C[C@@H]2N(C)CC3)cc1OC [Compound 221, N-[[(3aS,7aS)-3a-(3,4-dimethoxyphenyl)-1-methyl-2,3,4,5,7,7a-hexahydroindol-6-ylidene]amino]-4-chloro-aniline] | 0% | 0% | 0% | 0% | 0% | 0% | 0% | 0% | 2.9% | 3.4% | 17.5% | 95.1% | –
